BindingDB's records for doi:10.1016/S0960-894X(96)00551-3 (1996)

Legend:
[1] = Compound was tested for its ability to inhibit Endothelin A receptor induced arachidonic acid release(AARA) in rabbit renal artery vascular smooth muscles.
[2] = biological target: Endothelin A receptor (Oryctolagus cuniculus); experiment: as above
[3] = biological target: Endothelin A receptor (Oryctolagus cuniculus); experiment: Antagonistic activity against endothelin A receptor in rabbit renal artery vascular smooth muscle cells.

Compound | IC50 [2] | IC50 [3] | also measured
OCC(c1ccc2c(c1)OCO2)c1c2ccccc2nc2ccccc12 (stereo unspecified) [2-Acridin-9-yl-2-benzo[1,3]dioxol-5-yl-ethanol] | – | – | IC50 [1]: 10 µM
Cc1cc(C(C(N)=O)c2ccc3c(c2)OCO3)c2ccccc2n1 (stereo unspecified) [2-Benzo[1,3]dioxol-5-yl-2-(2-methyl-quinolin-4-yl)-acetamide] | 13 µM | – | –
COC(=O)C(Cc1c2ccccc2cc2ccccc12)c1ccc2c(c1)OCO2 (stereo unspecified) [3-Anthracen-9-yl-2-benzo[1,3]dioxol-5-yl-propionic acid methyl ester] | – | > 25 µM | –
O=C(OCc1ccc2c(c1)OCO2)C(c1ccc2c(c1)OCO2)c1c2ccccc2nc2ccccc12 (stereo unspecified) [Acridin-9-yl-benzo[1,3]dioxol-5-yl-acetic acid benzo[1,3]dioxol-5-ylmethyl ester] | – | 8.7 µM | –
O=C(OCc1ccccc1)C(c1ccc2c(c1)OCO2)c1c2ccccc2nc2ccccc12 (stereo unspecified) [Acridin-9-yl-benzo[1,3]dioxol-5-yl-acetic acid benzyl ester] | – | 7.5 µM | –
COC(=O)C(c1ccc2c(c1)OCO2)c1cc(C)nc2ccccc12 (stereo unspecified) [Benzo[1,3]dioxol-5-yl-(2-methyl-quinolin-4-yl)-acetic acid methyl ester] | 2.8 µM | – | –
